According to article PMC9881724, “Rational design of potent ultrashort antimicrobial peptides with programmable assembly into nanostructured hydrogels” (Frontiers in Chemistry, 2023):
Converted amounts (≈) assume the structure as drawn. Like-named read-outs stand apart in the source and are kept apart here. Each block holds one molecule with its values, some of them ahead of it. Residues, ends and D or L forms follow the SMILES beside them. No end group written: not given here. *: point of attachment. Fmoc = O=C(OCC1c2ccccc2-c2ccccc21)*

Key:
E. faecalis ATCC 19433 = type: cell-based
From the text: (§1) Indolicidin (sequence: ILPWKWPWWPWRR-NH2, molecular weight: 1,906.3 g/mol) and FMOC-WWRR-NH2 (molecular weight: 924.1) were obtained from ChemPep (USA) as lyophilized powder and acetate salts with a purity >95%. Ethanol and Congo red were purchased from Sigma-Aldrich (Australia). Sodium chloride was purchased from Alfa Aesar (United Kingdom). The negative staining agent phosphotungstic acid was purchased from Proscitech (Australia). A Milipore filter system was utilized to obtain Milli-Q water. BD Difco Mueller Hinton Broth (MHB) and Sabouraud broth (SB) were purchased from Cell biosciences (Australia). Strains: E. coli NCTC 10418, P. aeruginosa ATCC 9721, E. faecalis ATCC 19433, S. aureus ATCC 25923, S. aureus ATCC BAA-1756 (methicillin resistant), Streptococcus pneumoniae ATCC 49619, Candida albicans ATCC 10231 and Candida auris DSM 21092 (Fluconazole resistant) were provided by the RMIT microbial culture collection. Bacterial strains were stored in 50% glycerol at −20 and −80°C.
(§2) Minimal inhibitory concentration (MIC) assays were performed following a standard broth dilution procedure ([Wiegand et al., 2008]) in which bacteria were grown in MHB and fungal in SB overnight. The overnight bacterial suspension was adjusted to 10^6 CFU/ml in broth according to MacFarlane standard. Bacterial solutions were mixed in 96-well plates with the peptide solution to reach final concentrations of peptides ranging from 1,082 to 2 μM, including inhibition control (Indolicidin), growth control, and sterility control. Within each MIC experiment, each peptide was tested in triplicate across this concentration range and repeated on 3 independent days. Media and glassware were sterilized at 120°C for 1 h with an autoclave prior to all bioassays.

E. coli NCTC 10418 = type: cell-based
From the text: as §1, §2

P. aeruginosa ATCC 9721 = type: cell-based
From the text: as §1, §2

[1] = test system: S. aureus ATCC BAA-1756 (methicillin resistant); type: cell-based
From the text: as §1, §2

[2] = test system: Candida albicans ATCC 10231; type: cell-based
From the text: as §1, §2

[3] = test system: Streptococcus pneumoniae ATCC 49619; type: cell-based
From the text: as §1, §2

[4] = test system: Candida auris DSM 21092 (Fluconazole resistant); type: cell-based
From the text: as §1, §2

E. faecium = type: cell-based
Description: as §2

[5] = test system: S. aureus Methicillin resistant; experiment: Fluorescence assisted cell sorting (FACS) live/dead assay; type: cell-based; conditions: overnight 36-37°C, SYTO 9/propidium iodide
Description: (§3) FACS assay was performed following the LIVE/DEAD™ BacLight™ Bacterial Viability Kit (L7012) instructions and stablished procedures ([Berney et al., 2007]; [Robertson et al., 2019]), in which bacteria were grown in Mueller Hinton Broth and fungal in Sabouraud Broth overnight to a late–log phase. Then, 900 μl of the cell suspension was added to 100 μl of five different concentrations of peptides solution and incubated overnight at 36°C–37°C. On the next day, the suspension was centrifuged at 10,000 × g for 10 min and the supernatant fraction was removed from the samples. The pellets were resuspended with 1 ml of PBS buffer and incubated at room temperature for 1 h, mixing every 15 min. The sample was centrifuged at 10,000 × g for 10 min, the supernatant removed followed by the resuspension of the pellet in 1 ml of PBS. The washing steps were repeated twice. To perform the staining of the cells, equal volumes of SYTO® 9 and propidium iodide were combined in a microfuge tube and 3 µl of the dye mixture was added to each microbial suspension. The sample was incubated at room temperature in the dark for 15 min. The evaluation of cell viability was performed through the calculation of the red to green fluorescence ratio to determine the proportion of live cells in a sample.

[6] = test system: C. auris Fluconazole resistant; experiment: as above; type: cell-based; conditions: overnight 36-37°C, SYTO 9/propidium iodide
Description: as §3

E. coli = experiment: as above; type: cell-based; conditions: overnight 36-37°C, SYTO 9/propidium iodide
Description: as §3

[7] = Self-assembly and hydrogelation in water (electron microscopy, rheology, observation); type: physicochemical
Description: (§4) The peptides were prepared by mixing the lyophilized peptide directly with type 1 water, vortexed for a few seconds to obtain an isotropic solution and stored at 4°C–5°C in between experiments.
Carbon-coated grids (EMSCF200H-CU-TH, ProSciTech) were glow discharged to render them hydrophilic. A 1–5 μl aliquot of sample was applied to an upturned grid held in anti-capillary forceps, over moist filter paper, and left for 5 min over moistened filter paper to adsorb. Excess liquid was then removed with filter paper, the grid was then inverted onto a drop of 2% PTA stain, pH 6.9 on Parafilm, for 1 min. […] Images were recorded using a FEI Eagle 4 k × 4 k CCD camera and AnalySIS v3.2 camera control software (Olympus).
A laboratory-built humidity-controlled vitrification system was used to prepare the samples for Cryo-TEM. […] Images were recorded using a FEI Eagle 4 k × 4 k CCD camera at a range of magnifications using AnalySIS v3.2 camera control software (Olympus).
Rheology was undertaken on a calibrated rheometer (Anton Paar MCR 301, Anton Paar Pty. Ltd. Austria) fitted with a 15 mm cone plate fixture with a cone angle of 1° (CP15-1, Anton Paar Pty. Ltd. Austria). […] All measurements were carried out in triplicate with the mean and standard deviation shown, calculated and plotted in GraphPad Prism.

S. aureus ATCC 25923 = type: cell-based; conditions: ATCC 25923, 1 h
From the text: as §1, §2

[8] = Peptide assembly state from ATR-FTIR arginine side-chain vibrations; type: physicochemical; conditions: ATR-FTIR 25°C
Description: as §4
Data was recorded at 25°C using a Tensor-II spectrometer (Bruker, Germany) equipped with a Bio-ATR attachment (Bruker, Germany) by directly depositing the samples on the ATR crystal as previous reported by our group ([Dharmadana et al., 2019]). Spectra were collected over 32 scans within 4,000–400 cm^−1 wavenumber range at a resolution of 4 cm^−1. Associated water signal was subtracted from the resulting spectra, and secondary derivatives were calculated using OPUS software (Bruker, Germany).

[9] = type: physicochemical
Description: as §4

[10] = broth dilution in MHB, 10^6 CFU/ml, peptide 1,082 to 2 μM, triplicate on 3 independent days
[11] = broth dilution in Sabouraud broth, peptide 1,082 to 2 μM, triplicate on 3 independent days

Molecule: CC[C@H](C)[C@H](N)C(=O)N[C@@H](CC(C)C)C(=O)N1CCC[C@H]1C(=O)N[C@@H](Cc1c[nH]c2ccccc12)C(=O)N[C@@H](CCCCN)C(=O)N[C@@H](Cc1c[nH]c2ccccc12)C(=O)N1CCC[C@H]1C(=O)N[C@@H](Cc1c[nH]c2ccccc12)C(=O)N[C@@H](Cc1c[nH]c2ccccc12)C(=O)N1CCC[C@H]1C(=O)N[C@@H](Cc1c[nH]c2ccccc12)C(=O)N[C@@H](CCCNC(=N)N)C(=O)N[C@@H](CCCNC(=N)N)C(N)=O [Indolicidin, reference compound]
- MIC E. faecalis (E. faecalis ATCC 19433; [10]): 33 µM (≈ 62.9 µg/mL)
- MIC E. coli (E. coli NCTC 10418; [10]): 16 µM (≈ 30.5 µg/mL)
- MIC P. aeruginosa (P. aeruginosa ATCC 9721; [10]): 33 µM (≈ 62.9 µg/mL)
- MIC S. aureus Methicillin resistant ([1]; second value of cell S. aureus/Methicillin resistant, broth dilution in MHB, 10^6 CFU/ml, peptide 1,082 to 2 μM, triplicate on 3 independent days): 33 µM (≈ 62.9 µg/mL)
- MIC C. albicans [2, 11]: 4 µM (≈ 7.63 µg/mL)
- MIC S. pneumoniae [3, 10]: 16 µM (≈ 30.5 µg/mL)
- MIC C. auris Fluconazole resistant [4, 11]: 16 µM (≈ 30.5 µg/mL)
- MIC E. faecium (E. faecium; [10]): 33 µM (≈ 62.9 µg/mL)

- Nanostructures imaged by electron microscopy ([7]; 10% wt in water, 1 month incubation, in coexistence with globular oligomers): nanoribbons
- State of aqueous samples (rheology summary) ([7]; peptide in water, oscillatory rheology G'/G''): colloidal solutions of low viscosity
- MIC E. faecalis (E. faecalis ATCC 19433; ATCC 19433, 1 h): 61 µM (≈ 62.3 µg/mL)
- MIC E. coli (E. coli NCTC 10418; NCTC 10418, 1 h): 122 µM (≈ 125 µg/mL)
- MIC P. aeruginosa (P. aeruginosa ATCC 9721; ATCC 9721, 1 h): 61 µM (≈ 62.3 µg/mL)
- MIC S. aureus Methicillin resistant ([1]; ATCC BAA-1756, 1 h): 61 µM (≈ 62.3 µg/mL)
- MIC C. albicans ([2]; ATCC 10231, 1 h): 15 µM (≈ 15.3 µg/mL)
- MIC S. aureus (S. aureus ATCC 25923): 31 µM (≈ 31.7 µg/mL)
- MIC S. pneumoniae ([3]; ATCC 49619, 1 h): 31 µM (≈ 31.7 µg/mL)
- MIC C. auris Fluconazole resistant ([4]; DSM 21092, 1 h): 31 µM (≈ 31.7 µg/mL)
- Interpretation for peptide assembly according to MD ([8]; 1 % wt in water, 30 days after mixing): monomer/globular oligomer
- Interpretation for peptide assembly according to MD ([8]; 1 % wt in water, time after mixing 0): monomer/globular oligomer
- Interpretation for peptide assembly according to MD ([8]; 5 % wt in water, 30 days after mixing): monomer/globular oligomer
- Interpretation for peptide assembly according to MD ([8]; 5 % wt in water, time after mixing 0): monomer/globular oligomer
- Interpretation for peptide assembly according to MD ([8]; 10 % wt in water, 30 days after mixing): monomer/globular oligomer
- Interpretation for peptide assembly according to MD ([8]; 10 % wt in water, time after mixing 0): monomer/globular oligomer
- MIC E. faecium (E. faecium; 1 h): 61 µM (≈ 62.3 µg/mL)
Molecule: N=C(N)NCCC[C@H](NC(=O)[C@H](CCCNC(=N)N)NC(=O)[C@H](Cc1c[nH]c2ccccc12)NC(=O)[C@@H]1CCCN1C(=O)[C@H](Cc1c[nH]c2ccccc12)NC(=O)OCC1c2ccccc2-c2ccccc21)C(N)=O [P-Priscilicidin, Fmoc-WPWRR-NH2] (Fmoc-WPWRR-NH2)
- Dead % ([5]; 12 µM peptide): 5%
- Live % ([5]; 12 µM peptide): 95%
- Dead % ([5]; 24 µM peptide): 7%
- Live % ([5]; 24 µM peptide): 95%
- Dead % ([5]; 98 µM peptide): 83%
- Live % ([5]; 98 µM peptide): 19%
- Dead % ([5]; 196 µM peptide): 97%
- Live % ([5]; 196 µM peptide): 4%
- FACS minimum concentration showing over 90% dead microbes, S. aureus Methicillin resistant [5]: 196 µM
- Dead % ([6]; 12 µM peptide): 33%
- Live % ([6]; 12 µM peptide): 67%
- Dead % ([6]; 24 µM peptide): 95%
- Live % ([6]; 24 µM peptide): 4%
- Dead % ([6]; 49 µM peptide): 98%
- Live % ([6]; 49 µM peptide): 2%
- Dead % ([6]; 98 µM peptide): 98%
- Live % ([6]; 98 µM peptide): 1%
- Dead % ([6]; 196 µM peptide): 98%
- Live % ([6]; 196 µM peptide): 2%
- Dead % (E. coli; 12 µM peptide): 2%
- Live % (E. coli; 12 µM peptide): 93%
- Dead % (E. coli; 24 µM peptide): 33%
- Live % (E. coli; 24 µM peptide): 57%
- Dead % (E. coli; 49 µM peptide): 48%
- Live % (E. coli; 49 µM peptide): 33%
- Dead % (E. coli; 98 µM peptide): 44%
- Live % (E. coli; 98 µM peptide): 35%
- Dead % (E. coli; 196 µM peptide): 89%
- Live % (E. coli; 196 µM peptide): 2%
- FACS minimum concentration showing over 90% dead microbes, E. coli (E. coli): 196 µM

- Concentration easily solubilised in pure water [9]: at least 10 % w/w
- MIC E. faecalis (E. faecalis ATCC 19433; ATCC 19433, 1 h): 68 µM (≈ 62.8 µg/mL)
- MIC E. coli (E. coli NCTC 10418; NCTC 10418, 1 h): 68 µM (≈ 62.8 µg/mL)
- MIC P. aeruginosa (P. aeruginosa ATCC 9721; ATCC 9721, 1 h): 68 µM (≈ 62.8 µg/mL)
- MIC S. aureus Methicillin resistant ([1]; ATCC BAA-1756, 1 h): 34 µM (≈ 31.4 µg/mL)
- MIC C. albicans ([2]; ATCC 10231, 1 h): 8 µM (≈ 7.39 µg/mL)
- MIC S. aureus (S. aureus ATCC 25923): 17 µM (≈ 15.7 µg/mL)
- MIC S. pneumoniae ([3]; ATCC 49619, 1 h): 17 µM (≈ 15.7 µg/mL)
- MIC C. auris Fluconazole resistant ([4]; DSM 21092, 1 h): 17 µM (≈ 15.7 µg/mL)
- MIC E. faecium (E. faecium; 1 h): 34 µM (≈ 31.4 µg/mL)
Molecule: N=C(N)NCCC[C@H](NC(=O)[C@H](CCCNC(=N)N)NC(=O)[C@H](Cc1c[nH]c2ccccc12)NC(=O)[C@H](Cc1c[nH]c2ccccc12)NC(=O)OCC1c2ccccc2-c2ccccc21)C(N)=O [Priscilicidin, Fmoc-WWRR-NH2] (Fmoc-WWRR-NH2)

- MIC E. coli (E. coli NCTC 10418; NCTC 10418, 1 h): 313 µM
- MIC P. aeruginosa (P. aeruginosa ATCC 9721; ATCC 9721, 1 h): 313 µM
- MIC C. albicans ([2]; ATCC 10231, 1 h): 78 µM
- MIC C. auris Fluconazole resistant ([4]; DSM 21092, 1 h): 313 µM
Molecule: WPWRR-NH2 [Indolicidin C-terminus, WPWRR-NH2, reference compound]
